According to publication PMC11748363, “Antimicrobial and Antiproliferative Properties of 2‐Phenyl‐N‐(Pyridin‐2‐yl)acetamides” (Chemical Biology & Drug Design, 2025):
Converted amounts (≈) assume the structure as drawn. Like-named read-outs stand apart in the source and are kept apart here.

Assays:
[1] = tested on: Staphylococcus aureus subsp. aureus CCM 4750, ATCC 43300 (MRSA); experiment: Antibacterial microdilution broth MIC, MRSA; assay type: cell-based; conditions: Staphylococcus aureus
[2] = tested on: Klebsiella pneumoniae CCM 4415, ATCC 10031; experiment: Antibacterial microdilution broth MIC, KP
[3] = tested on: Mycolicibacterium smegmatis DSM 43465; experiment: Antimycobacterial microdilution broth MIC (resazurin), M. smegmatis; assay type: cell-based; conditions: DSM43465, read-out: MIC M. smegmatis
[4] = tested on: Candida parapsilosis CCM 8260, ATCC 22019; experiment: Antifungal microdilution broth MIC, CP; conditions: Lodderomyces parapsilosis
[5] = tested on: Acinetobacter baumannii DSM 30007, ATCC 19606; experiment: Antibacterial microdilution broth MIC, ACI; assay type: cell-based
[6] = tested on: Aspergillus flavus CCM 8363; experiment: Antifungal microdilution broth MIC, AFla
[7] = tested on: Mycobacterium tuberculosis H37Ra; experiment: Antimycobacterial microdilution broth MIC (resazurin), Mtb H37Ra; assay type: cell-based; conditions: Mycobacterium tuberculosis, H37RA, read-out: MIC Mtb H37Ra
[8] = tested on: Mycolicibacterium aurum DSM 43999; experiment: Antimycobacterial microdilution broth MIC (resazurin), M. aurum; assay type: cell-based; conditions: DSM43999, read-out: MIC M. aurum
[9] = tested on: Candida albicans CCM 8320, ATCC 24433; experiment: Antifungal microdilution broth MIC, CA
[10] = tested on: Staphylococcus aureus CCM 4223, ATCC 29213; experiment: Antibacterial microdilution broth MIC, SA; assay type: cell-based; conditions: Staphylococcus aureus
[11] = tested on: Lichtheimia corymbifera CCM 8077; experiment: Antifungal microdilution broth MIC, LC
[12] = tested on: Aspergillus fumigatus ATCC 204305; experiment: Antifungal microdilution broth MIC, AF
[13] = tested on: Pseudomonas aeruginosa CCM 3955, ATCC 27853; experiment: Antibacterial microdilution broth MIC, PA; assay type: cell-based
[14] = tested on: Escherichia coli CCM 3954, ATCC 25922; experiment: Antibacterial microdilution broth MIC, EC; assay type: cell-based
[15] = tested on: Enterococcus faecalis CCM 4224, ATCC 29212; experiment: Antibacterial microdilution broth MIC, EF; assay type: cell-based
[16] = tested on: Staphylococcus epidermidis CCM 4418, ATCC 12228; experiment: Antibacterial microdilution broth MIC, SE; assay type: cell-based
HepG2 cell line = experiment: Cytotoxicity CellTiter 96, HepG2; assay type: cell-based, human; conditions: Homo sapiens, HepG2, 24 h, 24 h incubation; ^c compound precipitated in the testing medium; ^d over the limit of tested concentrations
Protocol: The cytotoxicity of final compounds was determined in human hepatocellular carcinoma cell line HepG2.
Cytotoxicity determination
Human hepatocellular liver carcinoma cell line HepG2 purchased from Health Protection Agency Culture Collections (ECACC, Salisbury, UK) was cultured in MEM (Minimum Essentials Eagle Medium, Sigma–Aldrich) supplemented with 10% fetal bovine serum (PAA Laboratories, Pasching, Austria), 1% L-glutamine solution (Sigma–Aldrich) and non-essential amino acid solution (Sigma–Aldrich) in a humidified atmosphere containing 5% CO2 at 37 °C. For subculturing, the cells were harvested after trypsin/EDTA (Sigma–Aldrich) treatment at 37 °C. To evaluate cytotoxicity, the cells treated with the tested substances were used as experimental groups whereas untreated HepG2 cells served as controls. The cells were seeded in density 10,000 cells per well in a 96 well plate. The next day the cells were treated with each of the tested substances dissolved in DMSO. The tested substances were
in triplicates according to their solubility. Simultaneously, the controls representing 100% cell viability, 0% cell viability (the cells treated with 10% DMSO), no cell control and vehiculum controls were also
the reagent from the kit CellTiter 96 AQueous One Solution Cell Proliferation Assay (CellTiter 96; PROMEGA, Fitchburg, USA) was added. After 2h incubation at 37 °C, absorbance of samples was recorded at 490 nm (TECAN, Infinita M200, Austria). A standard toxicological parameter IC50 was calculated by nonlinear regression from a semilogarithmic plot of incubation concentration versus percentage of absorbance relative to untre ated controls using GraphPad Prism 8 software.

[17] = tested on: Trichophyton interdigitale CCM 8377, ATCC 9533; experiment: Antifungal microdilution broth MIC, TI; conditions: Trichophyton interdigitale
[18] = tested on: Candida krusei CCM 8271, ATCC 6258; experiment: Antifungal microdilution broth MIC, CK; conditions: Pichia kudriavzevii
[19] = tested on: Candida tropicalis CCM 8264, ATCC 750; experiment: Antifungal microdilution broth MIC, CT
[20] = CCM8363, 24 h, read-out: MIC AFla 24h
[21] = CCM8363, 48 h, read-out: MIC AFla 48h
[22] = CCM8077, 24 h, read-out: MIC LC 24h
[23] = CCM8077, 48 h, read-out: MIC LC 48h
[24] = ATCC204305, 24 h, read-out: MIC AF 24h
[25] = ATCC204305, 48 h, read-out: MIC AF 48h

Structure (SMILES)	MIC ([1]; 24 h, read-out: MIC MRSA 24h) [µM]	MIC ([1]; 48 h, read-out: MIC MRSA 48h) [µM]	MIC KP 24h [2] [µM]	MIC KP 48h [2] [µM]	MIC [3] [µg/mL]	MIC ([4]; 24 h, read-out: MIC CP 24h) [µM]	MIC ([4]; 48 h, read-out: MIC CP 48h) [µM]	MIC ([5]; 24 h, read-out: MIC ACI 24h) [µM]	MIC ([5]; 48 h, read-out: MIC ACI 48h) [µM]	MIC [6, 20] [µM]	MIC [6, 21] [µM]	MIC ([7]; Calculated from MIC (μg/mL)) [µM]	MIC [7] [µg/mL]	MIC [8] [µg/mL]	MIC ([9]; 24 h, read-out: MIC CA 24h) [µM]	MIC ([9]; 48 h, read-out: MIC CA 48h) [µM]	MIC ([10]; 24 h, read-out: MIC SA 24h) [µM]	MIC ([10]; 48 h, read-out: MIC SA 48h) [µM]	MIC [11, 22] [µM]	MIC [11, 23] [µM]	other results
O=C(Cc1ccccc1Cl)Nc1ccc(Cl)cn1 [Compound 14, 2-(2-chlorophenyl)-N-(5-chloropyridin-2-yl)acetamide]	> 500	> 500	> 500	> 500	> 500	> 500	> 500	> 500	> 500	> 500	> 500	> 1780	> 500	> 500	> 500	> 500	> 500	> 500	> 500	> 500	MIC [12, 24]: > 500 µM; MIC [12, 25]: > 500 µM; MIC ([13]; 24 h, read-out: MIC PA 24h): > 500 µM; MIC ([13]; 48 h, read-out: MIC PA 48h): > 500 µM; MIC ([14]; 24 h, read-out: MIC EC 24h): > 500 µM; MIC ([14]; 48 h, read-out: MIC EC 48h): > 500 µM; MIC ([15]; 24 h, read-out: MIC EF 24h): > 500 µM; MIC ([15]; 48 h, read-out: MIC EF 48h): > 500 µM; MIC ([16]; 24 h, read-out: MIC SE 24h): > 500 µM; MIC ([16]; 48 h, read-out: MIC SE 48h): > 500 µM; IC50 (HepG2 cell line): > 50 µM; MIC ([17]; 72 h, read-out: MIC TI 72h): > 500 µM; MIC ([17]; 120 h, read-out: MIC TI 120h): > 500 µM; MIC ([18]; 24 h, read-out: MIC CK 24h): > 500 µM; MIC ([18]; 48 h, read-out: MIC CK 48h): > 500 µM; MIC ([19]; 24 h, read-out: MIC CT 24h): > 500 µM; MIC ([19]; 48 h, read-out: MIC CT 48h): > 500 µM
O=C(Cc1ccccc1Cl)Nc1ccccn1 [Compound 13, 2-(2-chlorophenyl)-N-(pyridin-2-yl)acetamide]	> 500	> 500	> 500	> 500	> 500	> 500	> 500	> 500	> 500	> 500	> 500	253	62.5	250 (≈ 1010 µM)	> 500	> 500	> 500	> 500	> 500	> 500	MIC [12, 24]: > 500 µM; MIC [12, 25]: > 500 µM; MIC ([13]; 24 h, read-out: MIC PA 24h): > 500 µM; MIC ([13]; 48 h, read-out: MIC PA 48h): > 500 µM; MIC ([14]; 24 h, read-out: MIC EC 24h): > 500 µM; MIC ([14]; 48 h, read-out: MIC EC 48h): > 500 µM; MIC ([15]; 24 h, read-out: MIC EF 24h): > 500 µM; MIC ([15]; 48 h, read-out: MIC EF 48h): > 500 µM; MIC ([16]; 24 h, read-out: MIC SE 24h): 500 µM (≈ 123 µg/mL); MIC ([16]; 48 h, read-out: MIC SE 48h): 500 µM (≈ 123 µg/mL); IC50 (HepG2 cell line): 755 µM; MIC ([17]; 72 h, read-out: MIC TI 72h): 500 µM (≈ 123 µg/mL); MIC ([17]; 120 h, read-out: MIC TI 120h): 500 µM (≈ 123 µg/mL); MIC ([18]; 24 h, read-out: MIC CK 24h): > 500 µM; MIC ([18]; 48 h, read-out: MIC CK 48h): > 500 µM; MIC ([19]; 24 h, read-out: MIC CT 24h): > 500 µM; MIC ([19]; 48 h, read-out: MIC CT 48h): > 500 µM
O=C(Cc1cccc(C(F)(F)F)c1)Nc1ccccn1 [Compound 25]	> 500	> 500	> 500	> 500	> 500	> 500	> 500	> 500	> 500	> 500	> 500	223	62.5	125 (≈ 446 µM)	> 500	> 500	> 500	> 500	> 500	> 500	MIC [12, 24]: > 500 µM; MIC [12, 25]: > 500 µM; MIC ([13]; 24 h, read-out: MIC PA 24h): > 500 µM; MIC ([13]; 48 h, read-out: MIC PA 48h): > 500 µM; MIC ([14]; 24 h, read-out: MIC EC 24h): > 500 µM; MIC ([14]; 48 h, read-out: MIC EC 48h): > 500 µM; MIC ([15]; 24 h, read-out: MIC EF 24h): > 500 µM; MIC ([15]; 48 h, read-out: MIC EF 48h): > 500 µM; MIC ([16]; 24 h, read-out: MIC SE 24h): > 500 µM; MIC ([16]; 48 h, read-out: MIC SE 48h): > 500 µM; IC50 (HepG2 cell line): 724 µM; MIC ([17]; 72 h, read-out: MIC TI 72h): 500 µM (≈ 140 µg/mL); MIC ([17]; 120 h, read-out: MIC TI 120h): 500 µM (≈ 140 µg/mL); MIC ([18]; 24 h, read-out: MIC CK 24h): > 500 µM; MIC ([18]; 48 h, read-out: MIC CK 48h): > 500 µM; MIC ([19]; 24 h, read-out: MIC CT 24h): > 500 µM; MIC ([19]; 48 h, read-out: MIC CT 48h): > 500 µM
